Experimental data taken from US10301317B2, “Inhibitors of ERK and methods of use” (Kura Oncology, Inc., priority 2013, dated 2019).

Key:
Type in all cases: cell-based
[1] = test system: phospho-p90 RSK (RSK1 Thr359/Ser363) in A375 (Braf V600E) cells; assay: Phospho-p90 RSK ELISA using A375 (Braf V600E) cells; details: Homo sapiens, A-375, 2 hours compound treatment, read-out: Cellular Phospho-p90RSK IC50
[2] = test system: H358 (Kras, G12C) cells; assay: Tumor cell line proliferation assay (CellTiter Glo), H358; details: Homo sapiens, NCI-H358, 96 hours
[3] = test system: A375 cells; assay: Tumor cell line proliferation assay (CellTiter Glo), A375; details: Homo sapiens, A-375, 96 h, read-out: A375 (V599E) Cell Proliferation IC50

SMILES	IC50 [1] [nM]	IC50 [2] [nM]	IC50 [3] [nM]
Cc1cc(-c2n[nH]c3cc4c(cc23)CC(C(C)c2cccc(Cl)c2)C(=O)N4)ccn1 (centres unmarked) [Example 181]	≤ 250	≤ 250	≤ 250
Cc1cc(-c2n[nH]c3cc4c(cc23)CN([C@@H]2CCCN(Cc3c(F)cccc3F)C2)C(=O)N4)ccn1 [Example 143]	≤ 250	≤ 250	≤ 250
Cc1cc(-c2n[nH]c3cc4c(cc23)CN([C@@H]2CCCN(C)C2)C(=O)N4)ccn1 [Example 33]	> 1000	> 1000	> 1000
Cc1cc(-c2n[nH]c3cc4c(cc23)CN(Cc2cscn2)C(=O)N4)ccn1 [Example 47]	250 to 1000	> 1000	> 1000
Cc1cc(-c2n[nH]c3cc4c(cc23)CN([C@@H]2CCCN(Cc3csc(C)n3)C2)C(=O)N4)ccn1 [Example 140]	≤ 250	250 to 1000	250 to 1000
Cc1cc(-c2n[nH]c3cc4c(cc23)CN([C@@H]2CCCN(CC(F)(F)F)C2)C(=O)N4)ccn1 [Example 193]	≤ 250	250 to 1000	250 to 1000
Cc1cc(-c2n[nH]c3cc4c(cc23)CN([C@@H]2CCCN(CC3CCCCC3)C2)C(=O)N4)ccn1 [Example 141]	≤ 250	250 to 1000	250 to 1000
COc1ncc(-c2n[nH]c3cc4c(cc23)CN(Cc2cccc(Cl)c2)C(=O)N4)cn1 [Example 68]	≤ 250	250 to 1000	≤ 250
Cc1cc(-c2n[nH]c3cc4c(cc23)CN([C@@H]2CCCN(c3ccc(F)cn3)C2)C(=O)N4)ccn1 [Example 199]	≤ 250	250 to 1000	250 to 1000
O=C1Nc2cc3[nH]nc(-c4cncnc4)c3cc2CN1Cc1cccc(Cl)c1 [Example 123]	≤ 250	250 to 1000	250 to 1000
Cc1cc(-c2n[nH]c3cc4c(cc23)CN([C@@H]2CCCN(Cc3cc(C)no3)C2)C(=O)N4)ccn1 [Example 139]	250 to 1000	250 to 1000	250 to 1000
Cc1cc(-c2n[nH]c3cc4c(cc23)CN([C@@H]2CCCN(C(C)c3cccc(Cl)c3)C2)C(=O)N4)ccn1 (some centres unmarked) [Example 180]	≤ 250	250 to 1000	250 to 1000
Cc1cc(-c2n[nH]c3cc4[nH]c(=O)n(Cc5ccccc5)c(=O)c4cc23)ccn1 [Example 27]	250 to 1000	> 1000	> 1000
Cc1cc(-c2n[nH]c3cc4c(cc23)CN(C2CCCC2)C(=O)N4)ccn1 [Example 205]	≤ 250	250 to 1000	250 to 1000
Cc1cc(-c2n[nH]c3cc4c(cc23)CN([C@@H]2CCCN(CCC(F)(F)F)C2)C(=O)N4)ccn1 [Example 178]	≤ 250	250 to 1000	250 to 1000
Cc1cc(-c2n[nH]c3cc4c(cc23)CN([C@@H]2CCCN(CCC(C)(C)C)C2)C(=O)N4)ccn1 [Example 136]	250 to 1000	> 1000	250 to 1000
Cc1cc(-c2n[nH]c3cc4c(cc23)CN([C@H](CO)c2cccc(Cl)c2)C(=O)N4)ccn1 [Example 26]	≤ 250	> 1000	250 to 1000
Cc1cc(-c2n[nH]c3cc4c(cc23)CN([C@@H]2CCCN(c3cccc(Cl)c3)C2)C(=O)N4)ccn1 [Example 174]	≤ 250	≤ 250	250 to 1000
COc1cccc(F)c1CN1CCC[C@@H](N2Cc3cc4c(-c5ccnc(C)c5)n[nH]c4cc3NC2=O)C1 [Example 144]	≤ 250	≤ 250	≤ 250
Cc1cc(-c2n[nH]c3cc4c(cc23)CN(Cc2ccc(F)cc2)C(=O)N4)ccn1 [Example 30]	≤ 250	250 to 1000	250 to 1000
COc1ncc(-c2n[nH]c3cc4c(cc23)CN([C@@H]2CCCN(Cc3c(F)cccc3F)C2)C(=O)N4)cn1 [Example 102]	≤ 250	≤ 250	≤ 250
Cc1cc(-c2n[nH]c3cc4c(cc23)CN(Cc2ccc(C#N)cc2)C(=O)N4)ccn1 [Example 39]	250 to 1000	250 to 1000	> 1000
Cc1cc(-c2n[nH]c3cc4c(cc23)CN([C@@H]2CCCN(Cc3ccc(F)cn3)C2)C(=O)N4)ccn1 [Example 132]	≤ 250	250 to 1000	250 to 1000
Cc1cc(-c2n[nH]c3cc4c(cc23)CN(C2CN(Cc3ccccc3)CC(F)(F)C2)C(=O)N4)ccn1 (centres unmarked) [Example 200]	≤ 250	250 to 1000	250 to 1000
CCC(c1ccccc1)c1cc2cc3c(-c4ccnc(C)c4)n[nH]c3cc2[nH]c1=O (centres unmarked) [Example 64]	≤ 250	≤ 250	≤ 250
Cc1cc(-c2n[nH]c3cc4c(cc23)CN([C@@H]2CCCN(CC3CCCC3)C2)C(=O)N4)ccn1 [Example 138]	250 to 1000	> 1000	250 to 1000
Cc1cc(-c2n[nH]c3cc4c(cc23)CN(C2CN(CC3CCCC3)CC(F)(F)C2)C(=O)N4)ccn1 (centres unmarked) [Example 201]	> 1000	> 1000	> 1000
Cc1cc(-c2n[nH]c3cc4c(cc23)CN([C@@H]2CCCN(Cc3ccc(F)c(Cl)c3)C2)C(=O)N4)ccn1 [Example 134]	≤ 250	250 to 1000	≤ 250

SMILES	IC50 [1] [nM]	IC50 [2] [nM]	IC50 [3] [nM]
Cn1cc(-c2n[nH]c3cc4c(cc23)CN(Cc2ccc(F)c(Cl)c2)C(=O)N4)ccc1=O [Example 41]	≤ 250	250 to 1000	250 to 1000
Cc1cc(-c2n[nH]c3cc4c(cc23)CN(C2CCCCC2)C(=O)N4)ccn1 [Example 204]	250 to 1000	> 1000	250 to 1000
Cc1cc(-c2n[nH]c3cc4c(cc23)CN([C@@H]2CCN(CC(F)(F)F)C2)C(=O)N4)ccn1 [Example 214]	≤ 250	≤ 250	≤ 250
COc1ncc(-c2n[nH]c3cc4c(cc23)CN(Cc2ccc(F)c(Cl)c2)C(=O)N4)cn1 [Example 37]	≤ 250	250 to 1000	250 to 1000
Cc1cc(-c2n[nH]c3cc4c(cc23)CN(C2CCNCC2)C(=O)N4)ccn1 [Example 34]	> 1000	> 1000	> 1000
Cc1ncc(-c2n[nH]c3cc4c(cc23)CN([C@@H]2CCCN(Cc3ccc(F)cc3F)C2)C(=O)N4)cn1 [Example 293]	≤ 250	–	≤ 250
Cc1cc(-c2n[nH]c3cc4c(cc23)CN([C@@H]2CN(CC(F)(F)F)C[C@H]2c2cccs2)C(=O)N4)ccn1 (mixture of isomers) [Example 321]	≤ 250	–	250 to 1000
Cc1cc(-c2n[nH]c3cc4c(cc23)CN([C@@H]2CCN(C(C)C(F)(F)F)C2)C(=O)N4)ccn1 (some centres unmarked) [Example 267]	≤ 250	–	≤ 250
Cc1cc(-c2n[nH]c3cc4c(cc23)CN([C@@H]2CN(C)C[C@H]2c2ccccc2F)C(=O)N4)cc(C)n1 (racemic) [Example 306]	≤ 250	–	≤ 250
Cc1cc(-c2n[nH]c3cc4c(cc23)CN([C@H]2CCN(Cc3ccccc3)C2)C(=O)N4)ccn1 [Example 301]	≤ 250	–	250 to 1000
Cc1cc(-c2n[nH]c3cc4c(cc23)CN(Cc2cccc(C(F)(F)F)c2)C(=O)N4)ccn1 [Example 240]	≤ 250	–	≤ 250
COc1ncc(-c2n[nH]c3cc4[nH]c(=O)c(C5CCCN(Cc6ccccc6)C5)cc4cc23)cn1 (centres unmarked) [Example 364]	≤ 250	–	≤ 250
Cc1cc(-c2n[nH]c3cc4c(cc23)CN([C@@H]2CCCN(C(C)c3ccccc3)C2)C(=O)N4)ccn1 (some centres unmarked) [Example 154]	≤ 250	–	≤ 250
Cc1cc(-c2n[nH]c3cc4c(cc23)CN(Cc2cccs2)C(=O)N4)cc(C)n1 [Example 227]	≤ 250	–	250 to 1000
C=C(c1ccccc1)c1cc2cc3c(-c4ccnc(C)c4)n[nH]c3cc2[nH]c1=O [Example 269]	≤ 250	–	≤ 250
CC(c1ccccc1)c1cc2cc3c(-c4cnn(C)c4)n[nH]c3cc2[nH]c1=O (centres unmarked) [Example 333]	≤ 250	–	≤ 250
COc1cc(-c2n[nH]c3cc4c(cc23)CN([C@@H]2CCCN(Cc3ccccc3)C2)C(=O)N4)ccn1 [Example 270]	≤ 250	–	≤ 250
Cc1cc(-c2n[nH]c3cc4c(cc23)CN([C@@H]2CN(CC(F)(F)F)C[C@H]2C(F)(F)F)C(=O)N4)ccn1 [Example 331]	250 to 1000	–	250 to 1000
Cc1cc(-c2n[nH]c3cc4c(cc23)CN([C@@H]2CCCN(C(C)C(F)(F)F)C2)C(=O)N4)ccn1 (some centres unmarked) [Example 216]	≤ 250	–	250 to 1000
Cc1cc(-c2n[nH]c3cc4c(cc23)CN([C@@H]2CCCN(Cc3ccccc3Cl)C2)C(=O)N4)ccn1 [Example 158]	≤ 250	–	≤ 250
Cc1cc(-c2n[nH]c3cc4c(cc23)CN([C@@H]2CCCN(Cc3sccc3F)C2)C(=O)N4)ccn1 [Example 291]	≤ 250	–	≤ 250
Cc1cc(-c2n[nH]c3cc4c(cc23)CN(Cc2nc(C)c(C)s2)C(=O)N4)ccn1 [Example 228]	≤ 250	–	250 to 1000
Cc1cc(-c2n[nH]c3cc4c(cc23)CN([C@@H]2CCCN(Cc3ccc(C)s3)C2)C(=O)N4)ccn1 [Example 245]	≤ 250	–	≤ 250
Cc1cc(-c2n[nH]c3cc4c(cc23)CN([C@@H]2CCCN(Cc3cccc(Cl)c3)C2)C(=O)N4)ccn1 [Example 156]	≤ 250	–	≤ 250
Cc1ccc(-c2n[nH]c3cc4c(cc23)CN([C@@H]2CCCN(Cc3ccccc3)C2)C(=O)N4)cn1 [Example 275]	≤ 250	–	≤ 250
Cc1cc(-c2n[nH]c3cc4c(cc23)CN([C@@H]2CCCN(Cc3cccs3)C2)C(=O)N4)ccn1 [Example 254]	≤ 250	–	≤ 250
Cc1cc(-c2n[nH]c3cc4c(cc23)CN(CC2CCCCC2)C(=O)N4)ccn1 [Example 213]	≤ 250	–	≤ 250
